Where “and” joins values, the source holds several entries; their conditions need not be identical. Equal values may be shown once.
Legend:
Assay in all cases: Kinase inhibition screen, cell-free 33P ATP assay at 10 μM
Type in all cases: biochemical
[1] = molecular target: 140 purified human kinases (Homo sapiens, UniProt P17948); conditions: VEG-FR
Summary of the method: (§1)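 Each complex tested in duplicate at 10 μM; cell-free radiometric assay using ^33P ATP on purified enzymes. Hits mapped by HGNC symbol onto the kinome tree.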

[2] = molecular target: T1, 140 purified human kinases (Homo sapiens, UniProt P54762)
T1 sequence (P54762 18-984): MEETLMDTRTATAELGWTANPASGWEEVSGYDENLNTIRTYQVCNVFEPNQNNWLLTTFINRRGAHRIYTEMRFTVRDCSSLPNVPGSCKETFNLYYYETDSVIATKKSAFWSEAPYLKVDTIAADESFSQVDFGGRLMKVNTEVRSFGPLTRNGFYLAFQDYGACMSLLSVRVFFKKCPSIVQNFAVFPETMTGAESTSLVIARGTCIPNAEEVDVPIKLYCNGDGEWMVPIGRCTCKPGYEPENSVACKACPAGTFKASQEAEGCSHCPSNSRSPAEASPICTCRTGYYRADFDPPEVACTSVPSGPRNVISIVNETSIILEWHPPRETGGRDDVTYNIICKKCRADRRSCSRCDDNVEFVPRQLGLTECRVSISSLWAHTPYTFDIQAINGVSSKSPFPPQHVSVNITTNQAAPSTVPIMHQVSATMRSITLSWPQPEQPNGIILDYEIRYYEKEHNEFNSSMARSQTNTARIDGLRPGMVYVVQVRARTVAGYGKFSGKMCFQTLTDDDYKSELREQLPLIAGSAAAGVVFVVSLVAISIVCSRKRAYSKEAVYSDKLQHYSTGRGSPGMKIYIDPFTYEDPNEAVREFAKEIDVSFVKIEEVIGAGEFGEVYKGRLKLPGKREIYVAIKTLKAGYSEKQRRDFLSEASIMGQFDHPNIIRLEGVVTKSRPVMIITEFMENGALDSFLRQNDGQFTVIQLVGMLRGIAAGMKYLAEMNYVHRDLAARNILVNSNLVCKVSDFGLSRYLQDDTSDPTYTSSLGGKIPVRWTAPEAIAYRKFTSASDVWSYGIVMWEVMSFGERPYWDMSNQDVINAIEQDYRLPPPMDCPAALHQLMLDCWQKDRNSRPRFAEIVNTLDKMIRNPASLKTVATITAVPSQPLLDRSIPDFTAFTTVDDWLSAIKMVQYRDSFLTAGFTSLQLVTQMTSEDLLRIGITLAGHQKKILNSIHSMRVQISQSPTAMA
Summary of the method: as §1

[3] = molecular target: 140 purified human kinases (Homo sapiens, UniProt P41240); conditions: CSK
Sequence of 140 purified human kinases (Homo sapiens, UniProt P41240) (P41240 whole entry): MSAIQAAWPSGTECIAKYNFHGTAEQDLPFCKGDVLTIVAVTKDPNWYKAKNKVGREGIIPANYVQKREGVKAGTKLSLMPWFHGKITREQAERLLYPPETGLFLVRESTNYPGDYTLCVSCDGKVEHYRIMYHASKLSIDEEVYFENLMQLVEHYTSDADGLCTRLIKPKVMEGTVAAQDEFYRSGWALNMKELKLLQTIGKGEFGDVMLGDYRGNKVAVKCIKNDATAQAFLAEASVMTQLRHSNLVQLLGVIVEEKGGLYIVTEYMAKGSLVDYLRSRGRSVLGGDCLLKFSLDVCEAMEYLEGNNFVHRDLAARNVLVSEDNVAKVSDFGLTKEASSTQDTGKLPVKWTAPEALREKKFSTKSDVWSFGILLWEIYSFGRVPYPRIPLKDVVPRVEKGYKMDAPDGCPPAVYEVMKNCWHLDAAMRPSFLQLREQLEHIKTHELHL
Summary of the method: as §1

[4] = molecular target: 140 purified human kinases (Homo sapiens, UniProt Q15759); conditions: p38b MAPK
Sequence of 140 purified human kinases (Homo sapiens, UniProt Q15759) (Q15759 whole entry): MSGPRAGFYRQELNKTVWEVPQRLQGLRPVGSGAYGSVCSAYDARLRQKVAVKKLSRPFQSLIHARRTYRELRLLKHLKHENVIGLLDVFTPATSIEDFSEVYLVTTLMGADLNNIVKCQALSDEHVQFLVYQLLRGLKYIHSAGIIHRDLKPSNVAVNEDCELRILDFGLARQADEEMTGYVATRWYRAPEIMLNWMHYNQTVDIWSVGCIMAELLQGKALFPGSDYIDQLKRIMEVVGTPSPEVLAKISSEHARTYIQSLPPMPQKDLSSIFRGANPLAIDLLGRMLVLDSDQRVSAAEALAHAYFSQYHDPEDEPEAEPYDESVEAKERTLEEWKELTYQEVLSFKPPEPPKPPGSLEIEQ
Summary of the method: as §1

[5] = molecular target: T2, 140 purified human kinases (Homo sapiens, UniProt Q8TDC3)
T2 sequence (Q8TDC3 1-778): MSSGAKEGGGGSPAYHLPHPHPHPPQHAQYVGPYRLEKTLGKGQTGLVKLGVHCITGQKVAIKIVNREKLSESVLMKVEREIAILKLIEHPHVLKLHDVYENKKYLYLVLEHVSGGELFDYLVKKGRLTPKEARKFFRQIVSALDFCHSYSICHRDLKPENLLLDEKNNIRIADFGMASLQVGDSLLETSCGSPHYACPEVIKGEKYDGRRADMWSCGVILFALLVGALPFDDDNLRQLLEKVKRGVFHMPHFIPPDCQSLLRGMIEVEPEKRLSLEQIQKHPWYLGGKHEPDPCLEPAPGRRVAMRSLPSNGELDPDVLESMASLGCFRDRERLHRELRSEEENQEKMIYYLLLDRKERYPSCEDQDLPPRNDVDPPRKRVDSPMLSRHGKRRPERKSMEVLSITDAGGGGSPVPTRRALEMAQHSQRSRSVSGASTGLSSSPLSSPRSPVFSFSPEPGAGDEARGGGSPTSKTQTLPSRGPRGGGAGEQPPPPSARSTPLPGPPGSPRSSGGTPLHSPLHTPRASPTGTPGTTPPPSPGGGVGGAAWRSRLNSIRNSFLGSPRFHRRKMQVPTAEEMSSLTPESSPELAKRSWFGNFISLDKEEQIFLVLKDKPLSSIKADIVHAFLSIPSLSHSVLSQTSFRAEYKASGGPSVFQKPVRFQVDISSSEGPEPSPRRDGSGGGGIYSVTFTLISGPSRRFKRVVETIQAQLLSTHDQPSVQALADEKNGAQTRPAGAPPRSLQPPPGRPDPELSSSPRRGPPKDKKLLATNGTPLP
Summary of the method: as §1

[6] = molecular target: 140 purified human kinases (Homo sapiens, UniProt Q15303)
Sequence of 140 purified human kinases (Homo sapiens, UniProt Q15303) (Q15303 26-1308): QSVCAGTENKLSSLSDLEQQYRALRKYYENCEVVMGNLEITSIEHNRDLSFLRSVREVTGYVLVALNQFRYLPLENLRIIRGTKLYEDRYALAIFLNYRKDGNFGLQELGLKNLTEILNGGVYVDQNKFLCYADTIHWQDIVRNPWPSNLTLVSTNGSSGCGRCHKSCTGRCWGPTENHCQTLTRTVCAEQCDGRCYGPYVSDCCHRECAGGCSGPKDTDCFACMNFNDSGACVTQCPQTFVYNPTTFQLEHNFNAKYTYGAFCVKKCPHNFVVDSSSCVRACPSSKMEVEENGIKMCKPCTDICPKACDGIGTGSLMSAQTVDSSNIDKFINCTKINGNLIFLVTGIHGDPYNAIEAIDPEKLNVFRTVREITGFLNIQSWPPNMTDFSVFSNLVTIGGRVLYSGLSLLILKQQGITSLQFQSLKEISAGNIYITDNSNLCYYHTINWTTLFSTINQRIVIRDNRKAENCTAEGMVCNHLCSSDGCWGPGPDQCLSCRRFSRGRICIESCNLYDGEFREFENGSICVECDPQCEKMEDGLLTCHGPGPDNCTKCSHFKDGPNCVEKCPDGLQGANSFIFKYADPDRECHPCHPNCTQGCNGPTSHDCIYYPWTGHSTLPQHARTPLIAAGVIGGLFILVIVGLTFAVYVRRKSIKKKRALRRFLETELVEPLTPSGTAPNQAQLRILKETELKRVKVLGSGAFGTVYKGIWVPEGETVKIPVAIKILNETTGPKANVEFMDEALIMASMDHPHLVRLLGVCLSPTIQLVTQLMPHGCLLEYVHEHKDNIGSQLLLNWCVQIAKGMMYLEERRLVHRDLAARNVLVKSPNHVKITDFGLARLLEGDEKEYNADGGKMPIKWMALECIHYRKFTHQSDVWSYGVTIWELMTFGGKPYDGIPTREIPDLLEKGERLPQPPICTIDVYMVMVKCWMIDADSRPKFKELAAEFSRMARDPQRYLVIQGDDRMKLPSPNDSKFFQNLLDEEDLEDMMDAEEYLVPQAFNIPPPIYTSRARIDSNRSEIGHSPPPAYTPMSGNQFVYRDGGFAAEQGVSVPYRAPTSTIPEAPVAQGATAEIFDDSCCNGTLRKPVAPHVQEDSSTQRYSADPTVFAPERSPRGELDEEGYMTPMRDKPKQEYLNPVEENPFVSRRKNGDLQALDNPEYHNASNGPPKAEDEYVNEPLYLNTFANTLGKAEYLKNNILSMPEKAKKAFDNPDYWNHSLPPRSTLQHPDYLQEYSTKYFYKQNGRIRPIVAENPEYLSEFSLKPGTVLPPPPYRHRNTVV
Summary of the method: as §1

[7] = molecular target: 140 purified human kinases (Homo sapiens, UniProt P29317)
Sequence of 140 purified human kinases (Homo sapiens, UniProt P29317) (P29317 24-976): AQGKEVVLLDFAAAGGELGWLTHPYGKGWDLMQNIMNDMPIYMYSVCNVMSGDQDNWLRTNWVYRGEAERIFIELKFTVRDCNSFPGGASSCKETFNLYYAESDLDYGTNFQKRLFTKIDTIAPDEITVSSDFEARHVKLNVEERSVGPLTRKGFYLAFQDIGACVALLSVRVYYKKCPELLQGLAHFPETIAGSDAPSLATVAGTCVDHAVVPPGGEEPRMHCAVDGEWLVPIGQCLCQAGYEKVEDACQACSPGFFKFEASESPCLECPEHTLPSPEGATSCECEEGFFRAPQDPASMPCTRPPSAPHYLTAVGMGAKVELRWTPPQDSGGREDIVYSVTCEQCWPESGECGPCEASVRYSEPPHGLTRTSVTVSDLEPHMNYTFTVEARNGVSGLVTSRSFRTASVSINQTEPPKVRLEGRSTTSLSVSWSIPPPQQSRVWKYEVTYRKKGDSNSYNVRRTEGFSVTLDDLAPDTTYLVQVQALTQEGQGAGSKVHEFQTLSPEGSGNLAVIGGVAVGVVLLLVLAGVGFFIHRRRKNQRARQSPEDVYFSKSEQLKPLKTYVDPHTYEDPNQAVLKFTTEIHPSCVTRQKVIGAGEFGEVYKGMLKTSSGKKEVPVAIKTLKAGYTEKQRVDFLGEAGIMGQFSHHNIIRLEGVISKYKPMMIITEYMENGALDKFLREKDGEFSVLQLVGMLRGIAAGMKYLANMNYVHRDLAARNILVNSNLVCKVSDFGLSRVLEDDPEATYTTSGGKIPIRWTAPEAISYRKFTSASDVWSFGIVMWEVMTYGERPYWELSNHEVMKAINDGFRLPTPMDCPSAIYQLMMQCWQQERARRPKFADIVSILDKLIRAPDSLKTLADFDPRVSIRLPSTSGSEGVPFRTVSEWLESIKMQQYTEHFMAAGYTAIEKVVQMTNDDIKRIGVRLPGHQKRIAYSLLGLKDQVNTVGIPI
Summary of the method: as §1

Sequence of 140 purified human kinases (Homo sapiens, UniProt P17948) (P17948 27-1338): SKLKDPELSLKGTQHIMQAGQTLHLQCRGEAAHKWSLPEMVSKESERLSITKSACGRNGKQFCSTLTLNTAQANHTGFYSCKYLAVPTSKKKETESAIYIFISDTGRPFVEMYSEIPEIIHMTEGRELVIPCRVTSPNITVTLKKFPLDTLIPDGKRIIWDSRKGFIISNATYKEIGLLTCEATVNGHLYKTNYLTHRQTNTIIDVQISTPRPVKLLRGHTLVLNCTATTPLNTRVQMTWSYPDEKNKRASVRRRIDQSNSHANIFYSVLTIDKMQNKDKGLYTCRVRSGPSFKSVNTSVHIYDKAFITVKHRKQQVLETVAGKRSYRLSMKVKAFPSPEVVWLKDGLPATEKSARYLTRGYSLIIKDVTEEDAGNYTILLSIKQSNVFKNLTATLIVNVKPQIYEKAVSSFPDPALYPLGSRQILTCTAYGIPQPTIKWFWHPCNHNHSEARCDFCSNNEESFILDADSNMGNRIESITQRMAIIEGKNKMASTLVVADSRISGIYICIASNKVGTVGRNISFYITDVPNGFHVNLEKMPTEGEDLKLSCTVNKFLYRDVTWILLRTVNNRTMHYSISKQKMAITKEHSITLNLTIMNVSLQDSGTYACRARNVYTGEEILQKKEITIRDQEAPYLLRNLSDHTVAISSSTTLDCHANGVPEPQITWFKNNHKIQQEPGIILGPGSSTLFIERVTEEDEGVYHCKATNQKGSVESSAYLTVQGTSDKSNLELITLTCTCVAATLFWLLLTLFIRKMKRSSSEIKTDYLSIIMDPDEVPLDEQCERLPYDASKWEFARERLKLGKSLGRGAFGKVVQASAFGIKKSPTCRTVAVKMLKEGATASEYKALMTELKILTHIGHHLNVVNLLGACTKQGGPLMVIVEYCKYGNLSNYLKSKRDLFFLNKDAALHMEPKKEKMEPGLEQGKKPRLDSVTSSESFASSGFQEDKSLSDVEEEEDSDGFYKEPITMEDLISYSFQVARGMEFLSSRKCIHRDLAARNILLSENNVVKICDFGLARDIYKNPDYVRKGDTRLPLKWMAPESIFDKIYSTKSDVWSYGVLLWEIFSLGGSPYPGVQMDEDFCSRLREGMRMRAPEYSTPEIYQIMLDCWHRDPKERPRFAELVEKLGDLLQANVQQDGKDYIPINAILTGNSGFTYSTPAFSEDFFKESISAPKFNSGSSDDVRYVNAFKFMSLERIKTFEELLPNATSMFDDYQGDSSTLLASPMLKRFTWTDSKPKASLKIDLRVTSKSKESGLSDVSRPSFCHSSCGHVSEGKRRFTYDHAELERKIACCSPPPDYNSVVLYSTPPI

[Cu+2].[Cu+2].[Cu+2].c1ccc(-c2csc(NCCN(CCNc3nc(-c4ccccn4)cs3)CCNc3nc(-c4ccccn4)cs3)n2)nc1.c1ccc(-c2csc(NCCN(CCNc3nc(-c4ccccn4)cs3)CCNc3nc(-c4ccccn4)cs3)n2)nc1 [[L2Cu3]6+]
% Inhibition Run 1 [1]: 28.1% | % Inhibition Run 2 [1]: 27.2% | % Inhibition, Mean [1]: 28% | mean % activity [1]: 72% | % activity ([1]; Run 1): 71.9% | % activity ([1]; Run 2): 72.8% | % Activation, Mean value ([2]; EPH-B1): 14% | % Inhibition Run 1 ([2]; EPH-B1): -9.9% | % Inhibition Run 2 ([2]; EPH-B1): -17.3% | % Inhibition, Mean ([2]; EPH-B1): -14% | mean % activity ([2]; EPH-B1): 114% | % activity ([2]; EPH-B1, Run 1): 109.9% | % activity ([2]; EPH-B1, Run 2): 117.3% | % Activity Run 1 ([2]; EPH-B1, 10 µM): 109.90% | % Activity Run 2 ([2]; EPH-B1, 10 µM): 117.30% | % Inhibition Run 1 [3]: 11.5% | % Inhibition Run 2 [3]: 10.8% | % Inhibition, Mean [3]: 11% | mean % activity [3]: 89% | % activity ([3]; Run 1): 88.5% | % activity ([3]; Run 2): 89.2% | % Inhibition Run 1 [4]: 24.1% | % Inhibition Run 2 [4]: 0.3% | % Inhibition, Mean [4]: 12% | mean % activity [4]: 88% | % activity ([4]; Run 1): 75.9% | % activity ([4]; Run 2): 99.7% | % Inhibition Run 1 ([5]; BRSK1): 95.4% | % Inhibition Run 2 ([5]; BRSK1): 93.2% | % Inhibition, Mean ([5]; BRSK1): 94% | mean % activity ([5]; BRSK1): 5.7% | % activity ([5]; BRSK1, Run 1): 4.6% | % activity ([5]; BRSK1, Run 2): 6.8% | % Activity inhibition Mean ([5]; BRSK1, 10 µM): 94.3% | % Activity inhibition Run 1 ([5]; BRSK1, 10 µM): 95.4% | % Activity inhibition Run 2 ([5]; BRSK1, 10 µM): 93.2% | % Activity remaining Run 1 ([5]; BRSK1, 10 µM): 4.60% | % Activity remaining Run 2 ([5]; BRSK1, 10 µM): 6.80% | % Inhibition Run 1 ([6]; HER4): 32.7% | % Inhibition Run 2 ([6]; HER4): 23.3% | % Inhibition, Mean ([6]; HER4): 28% | mean % activity ([6]; HER4): 72% | % activity ([6]; HER4, Run 1): 67.3% | % activity ([6]; HER4, Run 2): 76.7% | % Inhibition Run 1 ([7]; EPH-A2): 3.5% | % Inhibition Run 2 ([7]; EPH-A2): 9.8% | % Inhibition, Mean ([7]; EPH-A2): 6.65% | mean % activity ([7]; EPH-A2): 93% | % activity ([7]; EPH-A2, Run 1): 96.5% | % activity ([7]; EPH-A2, Run 2): 90.2%

CC(=O)[O-].CC(=O)[O-].CC(=O)[O-].CC(=O)[O-].CC(=O)[O-].CC(=O)[O-].[Zn+2].[Zn+2].[Zn+2].c1ccc(-c2csc(NCCN(CCNc3nc(-c4ccccn4)cs3)CCNc3nc(-c4ccccn4)cs3)n2)nc1.c1ccc(-c2csc(NCCN(CCNc3nc(-c4ccccn4)cs3)CCNc3nc(-c4ccccn4)cs3)n2)nc1 [[L2Zn3]6+]
% Inhibition, Mean [1]: 17% | mean % activity [1]: 83% | % activity ([1]; duplicate runs): 73% and 93% | % Inhibition, Mean ([2]; EPH-B1): -0.2% | % Inhibition, Run 1 / Run 2 ([2]; EPH-B1): 4% and -4.6% | mean % activity ([2]; EPH-B1): 100% | % activity ([2]; EPH-B1, duplicate runs): 96% and 105% | % Inhibition, Mean [3]: 8% | mean % activity [3]: 92% | % activity ([3]; duplicate runs): 82% and 102% | % Inhibition, Mean [4]: -0.45% | % Inhibition, Run 1 / Run 2 [4]: 0.2% and -1.1% | mean % activity [4]: 100% | % activity ([4]; duplicate runs): 100% and 101% | % Inhibition, Mean ([5]; BRSK1): 32% | % Inhibition, Run 1 / Run 2 ([5]; BRSK1): 39% and 26% | mean % activity ([5]; BRSK1): 68% | % activity ([5]; BRSK1, duplicate runs): 62% and 74% | % Inhibition, Mean ([6]; HER4): 3.65% | mean % activity ([6]; HER4): 96% | % activity ([6]; HER4, duplicate runs): 88% and 105% | % Inhibition, Mean ([7]; EPH-A2): 19% | % Inhibition, Run 1 / Run 2 ([7]; EPH-A2): 21% and 17% | mean % activity ([7]; EPH-A2): 81% | % activity ([7]; EPH-A2, duplicate runs): 79% and 83%

From publication PMC8222254, “Self-assembly of an anion receptor with metal-dependent kinase inhibition and potent in vitro anti-cancer properties” (Nature Communications, 2021)
